Data: PMC6661766, “Antimicrobial, antioxidant and cytotoxic evaluation of diazenyl chalcones along with insights to mechanism of interaction by molecular docking studies” (BMC Chemistry, 2019)
Values after ≈ are worked out from the molar mass of the structure shown. Like-named read-outs stand apart in the source and are kept apart here.

Assays:
[1] = system: S. typhi; test: Antimicrobial serial tube dilution, MIC and MBC; type: cell-based, Salmonella typhi MTCC 3216; conditions: Salmonella enterica, TYPHI; for MIC: 24 h, read-out: S. typhi MIC; for MBC: read-out: S. typhi MBC
Experimental: (§1) The synthesized diazenyl chalcones (C18 to C27) and controls (dyes A and E, and chalcone) were assessed for their antimicrobial activity by estimation of MIC and MBC/MFC values. […] The stock solutions of the test compounds and standard drugs having a concentration of 1000 µg ml^−1 were prepared by dissolving the used compounds in DMSO. The nutrient broth/Sabouraud dextrose broth was used for the serial dilution of the test compounds and referenced drugs for bacterial and fungal cultures, respectively. […] The size of the final inoculum in each test tube was taken as 5 × 10^5 CFU ml^−1. The incubation of the test and standard compounds of varying concentrations was done for 24 h at 37 ± 2 °C (bacterial culture) and for 48 h at 37 ± 2 °C (C. albicans) and for 7 d at 25 ± 2 °C (A. fumigatus). The diazenyl chalcones (C18–C27), were further evaluated for their bactericidal/fungicidal activity by estimation of MBC/MFC values. […] For proper mixing of culture media, the plates were shaken gently followed by incubation at the predefined temperature and time as stated earlier, followed by the visual inspection of the plates for signs of microbial growth.

[2] = system: A. fumigatus; test: Antimicrobial serial tube dilution, MIC and MFC; type: cell-based, Aspergillus fumigatus MTCC 2584; conditions: Aspergillus fumigatus; for MIC: 168 h, read-out: A. fumigatus MIC; for MFC: read-out: A. fumigatus MFC
Experimental: as §1

[3] = system: E. coli; test: Antimicrobial serial tube dilution, MIC and MBC; type: cell-based, Escherichia coli MTCC 1652; conditions: for MIC / MBC: Escherichia coli; for MIC: 24 h, read-out: E. coli MIC, 24 h at 37 ± 2 °C; for MBC: read-out: E. coli MBC
Experimental: as §1

[4] = system: B. subtilis; test: Antimicrobial serial tube dilution, MIC and MBC; type: cell-based, Bacillus subtilis MTCC 2063; conditions: Bacillus subtilis; for MIC: read-out: B. subtilis MIC; for MBC: read-out: B. subtilis MBC
Experimental: as §1

[5] = system: C. albicans; test: Antimicrobial serial tube dilution, MIC and MFC; type: cell-based, Candida albicans MTCC 227; conditions: Candida albicans; for MIC: 48 h, read-out: C. albicans MIC; for MFC: read-out: C. albicans MFC
Experimental: as §1

[6] = system: S. aureus; test: Antimicrobial serial tube dilution, MIC and MBC; type: cell-based, Staphylococcus aureus MTCC 2901
Experimental: as §1

[7] = system: B. cereus; test: Antimicrobial serial tube dilution, MIC and MBC; type: cell-based, Bacillus cereus MTCC 1305
Experimental: as §1

[8] = DPPH scavenging antioxidant assay
Experimental: The derivatives (C18–C27) were assessed for their antioxidant potential in the presence of the stable free radical DPPH using ascorbic acid as the standard compound [36, 37]. […] The total volume of 200 µl was used in each well for each concentration of the test and standard drug containing 0.004 µg DPPH. The assay was performed in triplicate at all concentrations of each sample and standard compound. DPPH solutions in methanol at the same concentration without test drugs were used as the control. Each concentration of the sample and standard has a different blank. To minimize evaporation, the plate was covered with the lid and wrapped in aluminium foil and kept in the dark place in order to protect the DPPH radical from degradation by light and left for 30 min. After 30 min of incubation, the plate was kept in ELISA reader to measure the absorbance values at 517 nm. The experiment was performed in triplicate. The antioxidant activity of each sample was then calculated as per cent inhibition of DPPH according to the following equation: %decolourationofDPPH=ControlAbs-SampleAbs×100/ControlAbs

[9] = Staphylococcus aureus, 24 h, read-out: S. aureus MIC
[10] = Staphylococcus aureus, read-out: S. aureus MBC
[11] = Bacillus cereus, 24 h, read-out: B. cereus MIC
[12] = Bacillus cereus, read-out: B. cereus MBC

| SMILES | MIC [1] [µg/mL] | MBC [1] [µg/mL] | MIC [2] [µg/mL] | MFC [2] [µg/mL] | MIC [3] [µg/mL] | MBC [3] [µg/mL] | MIC ([4]; 24 h) [µg/mL] | MBC [4] [µg/mL] | melting point [°C] | MIC [5] [µg/mL] | MFC [5] [µg/mL] | MIC [6, 9] [µg/mL] | MIC [7, 11] [µg/mL] | % inhibition of DPPH ([8]; 1.56 µg ml^−1) [%] | % inhibition of DPPH ([8]; 3.12 µg ml^−1) [%] | % inhibition of DPPH ([8]; 6.25 µg ml^−1) [%] | % inhibition of DPPH ([8]; 12.5 µg ml^−1) [%] | % inhibition of DPPH ([8]; 25 µg ml^−1) [%] | % inhibition of DPPH ([8]; 50 µg ml^−1) [%] | % inhibition of DPPH ([8]; 100 µg ml^−1) [%] | also measured |
| --- | --- | --- | --- | --- | --- | --- | --- | --- | --- | --- | --- | --- | --- | --- | --- | --- | --- | --- | --- | --- | --- |
| O=C(/C=C\c1cc(Br)ccc1O)c1ccc(N=Nc2c(O)cccc2O)cc1 [Compound C-21, (2Z)-3-(5-Bromo-2-hydroxyphenyl)-1-(4-((2,6-dihydroxyphenyl)diazenyl)phenyl)prop-2-en-1-one] | 31.2 (≈ 71.1 µM) | 125 (≈ 285 µM) | 125 (≈ 285 µM) | 125 (≈ 285 µM) | 7.81 to 15.6 (≈ 17.8 to 35.6 µM) | 31.2 (≈ 71.1 µM) | 31.2 (≈ 71.1 µM) | 62.5 (≈ 142 µM) | 155 to 157 | 62.5 (≈ 142 µM) | 125 (≈ 285 µM) | 125 (≈ 285 µM) | 62.5 (≈ 142 µM) | 8.71 | 12.99 | 20.98 | 25.71 | 30.75 | 35.78 | 39.56 | E. coli MIC ([3]; 24 h at 37 ± 2 °C): 15.62 µg/mL; MBC [6, 10]: 125 µg/mL (≈ 285 µM); MBC [7, 12]: 62.5 µg/mL (≈ 142 µM) |
| O=C(/C=C\c1ccccc1[N+](=O)[O-])c1cccc(N=Nc2cccc(Cl)c2Cl)c1O [Compound C-20, (2Z)-1-(3-((2,3-Dichlorophenyl)diazenyl)-2-hydroxyphenyl)-3-(2-nitrophenyl)prop-2-en-1-one] | 125 (≈ 283 µM) | 125 (≈ 283 µM) | 125 (≈ 283 µM) | 125 (≈ 283 µM) | 125 (≈ 283 µM) | 250 (≈ 565 µM) | 62.5 (≈ 141 µM) | 125 (≈ 283 µM) | 105 to 107 | 125 (≈ 283 µM) | 250 (≈ 565 µM) | 125 (≈ 283 µM) | 125 (≈ 283 µM) | 8.15 | 9.87 | 10.51 | 14.32 | 18.96 | 20.76 | 29.39 | MBC [6, 10]: 125 µg/mL (≈ 283 µM); MBC [7, 12]: 125 µg/mL (≈ 283 µM); IC50 DPPH [8]: > 100 µg/mL |
| O=C1O[C@H]([C@@H](O)CO)C(O)=C1O [Ascorbic acid, ascorbic acid, reference compound] |  |  |  |  |  |  |  |  |  |  |  |  |  | 39.22 | 46.53 | 80.07 | 84.09 | 87.81 | 89.95 | 90.31 | IC50 DPPH [8]: 4.45 µg/mL (≈ 25.3 µM); IC50 DPPH ([8]; listed as Ascorbic Acid): 4.451 µg/mL (≈ 25.3 µM) |
| CO/N=C(\C(=O)N[C@@H]1C(=O)N2C(C(=O)O)=C(COC(C)=O)CS[C@H]12)c1csc(N)n1 [Cefotaxime, cefotaxime, reference compound] | 3.9 (≈ 8.56 µM) | 7.81 (≈ 17.1 µM) |  |  | 7.81 (≈ 17.1 µM) | 7.81 (≈ 17.1 µM) |  | 7.81 (≈ 17.1 µM) |  |  |  |  | 7.81 (≈ 17.1 µM) |  |  |  |  |  |  |  | MIC ([4]; 24 h at 37 ± 2 °C): 1.95 µg/mL (≈ 4.28 µM); MIC ([6]; Staphylococcus aureus; 24 h at 37 ± 2 °C; read-out: S. aureus MIC): 15.6 µg/mL (≈ 34.3 µM); MBC ([6]; Staphylococcus aureus; read-out: S. aureus MBC): 31.2 µg/mL (≈ 68.6 µM); MBC ([7]; Bacillus cereus; read-out: B. cereus MBC): 15.6 µg/mL (≈ 34.3 µM) |
